Reference: patent US20090247646A1, “USE OF RESVERATROL AND DERIVATIVES THEREOF FOR PROMOTING THE WELLNESS STATE IN MAMMALS” (priority 2006, published 2009)

Tested on: gene expression profile of heart, output variable Age
Assay: Classification of gene expression profile for age (Young/Old) using supervised learning, Support Vector Machine
Type: in vivo, mice
Description: Male B6C3F, mice (6-7 weeks of age) were purchased from Harlan Sprague Dawley. Mice were housed singly and provided water ad libitum. The control group (OC, N=5) was fed 98 kcal/week of modified AIN-93M semi-purified diet (Bio-serv, Frenchtown, N.J.), which provides approximately 15% fewer calories than the average ad libitum dietary intake. The treatment group (RES, N=5) was fed the same caloric intake as controls, but were supplemented with resveratrol 50 mg/kg diet (w/w) (3,4′,5-Trihydroxy-trans-stilbene; Sigma) from 14 months of age. Animals (OC and RES) were sacrificed at 30 months of age. Young animals were sacrificed at 5 months of age (YC, N=5). Hearts from all abovementioned groups were collected, immediately frozen in liquid nitrogen and stored at −80° C. until analysis.
Total RNA was extracted from frozen tissue by using TRIZOL reagent (Life Technologies, Grand Island, N.Y.). Polyadenylate [poly(A)^+] RNA was purified from total RNA with oligo-dT-linked oligotex resin (Qiagen, Valencia, Calif.). […]
For the classification analysis, supervised learning using Support Vector Machine (SVM) was performed based on supplied training data, “Young (YC)” and “Old (OC)” groups, to find rules for predicting the output variable “Age”. […] Results from the resveratrol group were then analysed using the Classification function for prediction of the output variable, “Age”. […]

Question: With `Oc1ccc(/C=C/c2cc(O)cc(O)c2)cc1` [resveratrol, 3,4′,5-Trihydroxy-trans-stilbene] as the compound, how does the “Classification of chips for output variable Age” value (all 4 chips of resveratrol group) read?
Answer: classified as Young

Question: And the “Average of g (mean classification output of group)” value (mean of 4 chips of the RES group, YC 0.9998575, OC −1.023992)?
Answer: 0.3486
